Laboratory results reported in article PMC8160210, “Single tryptophan Y160W mutant of homooligomeric E. coli purine nucleoside phosphorylase implies that dimers forming the hexamer are functionally not equivalent” (Scientific Reports, 2021).
Like-named read-outs stand apart in the source and are kept apart here.

Columns and labels:
Y160W PNP mutant = Y160W PNP mutant (Escherichia coli, UniProt P0ABP8, Y161W); assay: Inhibition of m^7Guo phosphorolysis; type: biochemical, E. coli; parameters: made in house; host or cells: E. coli DH5α-T1
Method: All activity measurements and kinetic studies were done in 50 mM Hepes/HCl buffer pH 7.0 at 25 °C as previously described for the WT E. coli PNP and its active-site mutants, using direct spectrophotometric assay for adenosine, guanosine and 7-methylguanosine as substrates, and a coupled assay with xanthine oxidase in the case of inosine[13],[28],[29]. Activity measurements were performed for each protein sample, before and after each experiment as a control of the state of the protein.
To determine inhibition model and inhibition constant for formycin A, rate of phosphorolysis with m^7Guo as a variable substrate, at constant, 50 mM, phosphate concentration, was registered in the absence of the inhibitor and in the presence of two different concentrations of formycin. A global fitting to the whole data set was performed, using various models (competitive, uncompetitive, noncompetitive, mixed). As expected for the substrate analogue, competitive model described the data sufficiently well:3 v0c0=Vmax1c0/c0+KM1+ci/Ki where ci is inhibitor concentration. Kinetic data were analysed using the GraphPad Prism program (Intuitive Software for Science, San Diego, CA, USA).

WT E. coli PNP [1] = molecular target: T1, WT E. coli PNP (Escherichia coli, UniProt P0ABP8); assay: Fluorescence titrations with phosphate; settings: three-binding-site model, 25 °C
T1 construct: made in house
T1 sequence (P0ABP8 2-239 limits assumed): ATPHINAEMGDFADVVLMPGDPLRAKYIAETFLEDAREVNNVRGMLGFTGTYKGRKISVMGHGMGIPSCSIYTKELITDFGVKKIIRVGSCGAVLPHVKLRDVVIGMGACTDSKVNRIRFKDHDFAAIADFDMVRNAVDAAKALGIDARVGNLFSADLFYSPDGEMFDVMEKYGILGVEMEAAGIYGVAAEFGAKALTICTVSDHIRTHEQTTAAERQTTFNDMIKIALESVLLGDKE
Method: All experiments were carried out on the Perkin-Elmer LS55 spectrofluorimeter. Fluorescence spectra were registered using in each case (protein or protein–ligand complex) several excitation wavelengths. Differential spectra were calculated by subtracting spectrum of a protein from the spectrum of the appropriate complex. The negative differential fluorescence intensity means that a decrease of fluorescence upon complex formation is observed. Titrations of the enzyme with phosphate were registered using several excitation and observation wavelengths combinations. When selecting specific wavelengths for such a combination, two criteria were used: (1) the overall change in the fluorescence signal and (2) the complexity of the shape of the titration as the analysis of the multi-phasic curves is more explicit than a uni-phasic curve analysis.
Path length for the excitation was 2 mm and for the emission was 5 mm (half of the cuvette dimensions). A continuous stirring was used during titrations. All measurements were performed at 25 °C. […]
Fluorescence intensity of the WT protein is stable over time, but in the case of the Y160W mutant a slight quenching of fluorescence is observed during titration, which typically lasted about 30 min as the time between each point in the titration was 1 min. Furthermore, adding phosphate during titration stabilises the intrinsic fluorescence of the protein. […] Thus corrected binding curves, F^cor([Pi]), are given by the following equation, in which Fn([Pi]) is the fluorescence intensity measured for the phosphate concentration [Pi], and n is the number of a given titration point in the particular titration:4 FncorPi=FnPi+∑m=1naPim
To check its influence on the intrinsic protein fluorescence, titrations with NaCl were performed, giving dependence F(I). […] Titration curves of the WT protein with phosphate were therefore measured up to 100 mM ionic strength of solution, which is enough to observe a plateau. […] Both F^obs([Pi]) and F(I) were corrected for the time dependent fluorescence quenching, according to Eq. (4), prior to the F^bind([Pi]) calculation. […]

WT E. coli PNP [2] = molecular target: T1, WT E. coli PNP; parameters: method as in PMID 30337572; settings: phosphate as variable substrate, 250 μM m^7Guo, allostery Eq. (2), cited from earlier work

Sequence of Y160W PNP mutant (P0ABP8 2-239 Y161W): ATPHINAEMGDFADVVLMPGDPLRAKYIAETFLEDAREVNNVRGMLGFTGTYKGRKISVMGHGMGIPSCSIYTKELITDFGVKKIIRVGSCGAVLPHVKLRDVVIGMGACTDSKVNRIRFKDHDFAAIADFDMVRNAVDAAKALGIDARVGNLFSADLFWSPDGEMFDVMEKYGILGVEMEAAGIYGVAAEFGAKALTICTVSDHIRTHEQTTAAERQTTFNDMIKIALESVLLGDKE

| Structure (SMILES) | Ki (Y160W PNP mutant) [µM] | Kd (WT E. coli PNP [1]; 50 mM Tris/HCl pH 7.6, read-out: Kd1 ± SD) [µM] | Kd (WT E. coli PNP [1]; 50 mM Tris/HCl pH 7.6, read-out: Kd2 ± SD) [µM] | Kd (WT E. coli PNP [1]; 50 mM Tris/HCl pH 7.6, read-out: Kd3 ± SD) [µM] | Km (WT E. coli PNP [2]; pH 7.0, 25 °C) [µM] | Vmax (WT E. coli PNP [2]; pH 7.0, 25 °C) [U/mg] | a (cooperativity coefficient, KM2 = aKM1) (WT E. coli PNP [2]) | b (cooperativity coefficient, Vmax2 = bVmax1) (WT E. coli PNP [2]) |
| --- | --- | --- | --- | --- | --- | --- | --- | --- |
| Nc1ncnc2c([C@@H]3O[C@H](CO)[C@@H](O)[C@H]3O)[nH]nc12 [FA, Formycin A] | 42 ± 4 | – | – | – | – | – | – | – |
| O=P(O)(O)O [Pi, Orthophosphate] | – | 4.4 | 84 | 1770 | 15 ± 4 | 10.8 ± 0.7 | 267 ± 232 | 0.76 ± 0.06 |
